From patent US5607937A, “Piperazides of substituted phenylalanine derivatives as thrombin inhibitors” (priority 1993, dated 1997)

What was measured:
[1] = plasma concentration in rats after rectal administration; format: in vivo; conditions: rat
[2] = plasma level in the stasis-induced thrombosis study, rectal application; format: in vivo; conditions: rat; for concentration at 0.5 h: 30 min; for concentration at 1 h: 60 min
Method: (§1) The antithrombotic activity of the compounds was determined in the rat on the model of the stasis-induced thrombosis according to Wessler et al. (J. Appl. Physiol. 14, 943-946, 1959). The thrombus was induced by serum 30 min after application of the inhibitor and macroscopically evaluated after 10 further min.
(§2) After rectal application, the compounds of the present invention are absorbed to an extent leading to antithrombotically active plasma levels. This has been shown with the model of the stasis-induced venous thrombosis in the rat according to Wessler et al. This method consisted in macroscopically evaluating thrombi induced by serum in jugular vein segments by means of a scale (0=liquid blood, 1=one or several small thrombi, 2=not fully closed vascular segment, 3=fully closed vascular segment). The antithrombotic effect is clearly dose-dependent.

[3] = plasma concentration in rats after intravenous administration; format: in vivo; conditions: rat
Method: (§4) A physiological NaCl solution of the substance to be tested was submitted to high pressure liquid chromatography (HPLC) in order to determine its characteristic substance-specific retention time with the chosen test conditions.
(§5) The substance to be tested was diluted in vitro in rat plasma. This solution was also submitted to HPLC to see whether the characteristic peak of the substance once again appeared at the substance-specific retention time.
(§6) Blood samples were taken at time intervals of 15 minutes, from which plasma samples were prepared by centrifugation; those samples were also submitted to HPLC to see whether the characteristic peak of the substance appeared again at the substance-specific retention time.
(§7) After administration, blood samples were taken from the test animals at time intervals from 2 to maximally 360 minutes and the blood level of the compounds to be tested was determined by HPLC.

[4] = biological target: plasma kallikrein (Homo sapiens, UniProt P03952); test: inhibition of plasma kallikrein, dissociation constant Ki
[5] = biological target: T1, trypsin (Bos taurus, UniProt P00760); test: inhibition of trypsin, dissociation constant Ki; format: biochemical; set-up: thrombin and the related enzymes trypsin, plasmin, factor Xa, factor XIIa
T1 sequence (P00760 24-246): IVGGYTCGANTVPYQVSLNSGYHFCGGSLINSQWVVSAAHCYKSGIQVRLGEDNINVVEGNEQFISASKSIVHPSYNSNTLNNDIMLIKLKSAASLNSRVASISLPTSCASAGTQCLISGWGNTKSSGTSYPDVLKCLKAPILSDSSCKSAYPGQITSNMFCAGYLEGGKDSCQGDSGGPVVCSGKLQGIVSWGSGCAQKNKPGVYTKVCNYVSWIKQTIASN
Method: (§3) The biological activity of the compounds of the present invention was determined in vitro as well as in vivo.

[6] = system: coagulation in human plasma; test: thrombin time (TT) in human plasma
[7] = plasma concentration in rats after oral administration; format: in vivo; conditions: rat
Method: as §4, §5, §6, §7

[8] = system: coagulation in human plasma; test: activated partial thromboplastin time (aPTT) in human plasma
[9] = system: coagulation in rat plasma; test: aPTT in rat plasma after rectal application; format: in vivo
Method: After rectal administration of the compounds to be tested, the anticoagulant effect was determined in the plasma of experimental animals.

[10] = biological target: factor Xa (Bos taurus, UniProt P00743); test: inhibition of factor Xa, dissociation constant Ki; format: biochemical; conditions: Table 1
Method: as §3

[11] = concentration in rat plasma in the anticoagulant study after rectal application; format: in vivo; conditions: for concentration at 0.5 h / concentration at 1 h / concentration at 2 h / concentration at 3 h: plasma; for concentration at 0.5 h: 30 min; for concentration at 1 h: 60 min; for concentration at 2 h: 120 min; for concentration at 3 h: 180 min; for Concentration in plasma: 0 min
[12] = biological target: plasmin (Homo sapiens, UniProt P00747); test: inhibition of plasmin, dissociation constant Ki
[13] = in vivo; conditions: plasma, rat, intraduodenal 100 mg/kg
[14] = biological target: tPA (Homo sapiens, UniProt P00750); test: inhibition of tPA, dissociation constant Ki
[15] = biological target: T2, factor XIIa (Homo sapiens, UniProt P00748); test: inhibition of factor XIIa, dissociation constant Ki
T2 sequence (P00748 373-615 limits assumed): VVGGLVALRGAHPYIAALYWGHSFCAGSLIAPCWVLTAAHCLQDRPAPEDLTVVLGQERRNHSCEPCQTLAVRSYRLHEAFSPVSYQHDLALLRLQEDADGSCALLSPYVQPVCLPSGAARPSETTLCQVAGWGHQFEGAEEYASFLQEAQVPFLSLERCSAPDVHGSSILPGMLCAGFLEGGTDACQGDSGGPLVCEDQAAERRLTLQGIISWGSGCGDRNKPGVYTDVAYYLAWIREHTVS

[16] = system: stasis-induced venous thrombosis in the rat; test: antithrombotic efficacy, stasis-induced venous thrombosis model (Wessler); format: in vivo; conditions: for Thrombus scale 0 (vein segments): 0=liquid blood; for Thrombus scale 1 (vein segments): 1=one or several small thrombi; for Thrombus scale 2 (vein segments): 2=not fully closed vascular segment; for Thrombus scale 3 (vein segments): 3=fully closed vascular segment
Method: as §1, §2
The relative thrombus scale is the quotient of the mean thrombus size of the treated group (e.g. the mean value at 5 mg/kg is 1.2) and the mean thrombus size of the control group (2.9).

Chain of factor Xa (P00743 234-492 limits assumed): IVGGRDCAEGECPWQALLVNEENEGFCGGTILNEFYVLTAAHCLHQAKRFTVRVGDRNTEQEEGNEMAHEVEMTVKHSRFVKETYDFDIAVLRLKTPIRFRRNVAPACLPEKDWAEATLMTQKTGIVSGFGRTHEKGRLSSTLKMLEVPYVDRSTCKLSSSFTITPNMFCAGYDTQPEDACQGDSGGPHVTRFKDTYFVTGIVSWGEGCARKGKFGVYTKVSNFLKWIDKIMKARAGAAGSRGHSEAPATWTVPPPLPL
Chain of factor Xa (P00743 41-180 partner limits assumed): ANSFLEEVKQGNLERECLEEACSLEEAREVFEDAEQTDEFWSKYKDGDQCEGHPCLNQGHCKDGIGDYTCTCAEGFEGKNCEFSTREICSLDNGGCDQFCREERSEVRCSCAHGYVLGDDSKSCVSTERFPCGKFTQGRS
Chain of plasma kallikrein (P03952 391-638 limits assumed, species assumed): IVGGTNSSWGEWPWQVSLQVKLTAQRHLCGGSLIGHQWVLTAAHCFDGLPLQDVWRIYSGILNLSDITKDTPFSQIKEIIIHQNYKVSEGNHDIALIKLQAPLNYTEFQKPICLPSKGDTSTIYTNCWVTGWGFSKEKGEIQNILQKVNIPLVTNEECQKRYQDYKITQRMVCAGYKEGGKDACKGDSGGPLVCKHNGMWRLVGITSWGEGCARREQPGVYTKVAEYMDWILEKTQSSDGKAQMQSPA
Chain of plasma kallikrein (P03952 20-390 partner limits assumed, species assumed): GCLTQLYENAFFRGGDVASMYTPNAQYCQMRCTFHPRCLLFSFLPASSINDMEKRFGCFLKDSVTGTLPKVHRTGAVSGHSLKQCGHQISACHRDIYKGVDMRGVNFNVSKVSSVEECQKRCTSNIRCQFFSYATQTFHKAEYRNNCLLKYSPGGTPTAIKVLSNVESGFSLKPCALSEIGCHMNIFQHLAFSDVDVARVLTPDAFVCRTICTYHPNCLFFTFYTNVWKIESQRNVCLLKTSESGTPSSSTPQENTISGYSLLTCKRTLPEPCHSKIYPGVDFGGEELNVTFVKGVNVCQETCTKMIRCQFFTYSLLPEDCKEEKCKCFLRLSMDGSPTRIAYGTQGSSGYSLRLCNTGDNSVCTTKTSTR
Chain of tPA (P00750 36-562): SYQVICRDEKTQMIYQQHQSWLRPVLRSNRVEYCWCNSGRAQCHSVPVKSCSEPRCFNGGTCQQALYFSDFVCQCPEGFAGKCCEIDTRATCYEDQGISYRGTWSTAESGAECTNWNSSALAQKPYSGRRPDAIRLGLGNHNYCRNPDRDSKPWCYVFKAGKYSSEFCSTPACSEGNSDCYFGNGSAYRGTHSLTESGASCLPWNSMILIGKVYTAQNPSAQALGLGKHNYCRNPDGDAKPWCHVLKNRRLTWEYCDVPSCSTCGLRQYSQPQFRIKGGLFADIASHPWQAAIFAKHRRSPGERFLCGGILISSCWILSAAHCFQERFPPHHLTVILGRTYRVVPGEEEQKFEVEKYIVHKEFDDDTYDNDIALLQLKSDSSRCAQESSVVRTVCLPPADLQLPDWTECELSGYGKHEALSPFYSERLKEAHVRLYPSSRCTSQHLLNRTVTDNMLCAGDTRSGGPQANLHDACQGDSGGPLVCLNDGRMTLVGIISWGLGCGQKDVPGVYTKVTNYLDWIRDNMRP
Chain of plasmin (P00747 581-810 limits assumed): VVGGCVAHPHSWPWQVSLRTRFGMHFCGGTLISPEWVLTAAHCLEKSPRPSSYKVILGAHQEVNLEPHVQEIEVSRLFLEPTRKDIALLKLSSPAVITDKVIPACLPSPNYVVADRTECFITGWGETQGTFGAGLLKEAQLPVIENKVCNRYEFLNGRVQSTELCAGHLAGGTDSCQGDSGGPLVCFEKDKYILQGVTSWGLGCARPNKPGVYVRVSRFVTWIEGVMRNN
Chain of plasmin (P00747 97-580 partner limits assumed): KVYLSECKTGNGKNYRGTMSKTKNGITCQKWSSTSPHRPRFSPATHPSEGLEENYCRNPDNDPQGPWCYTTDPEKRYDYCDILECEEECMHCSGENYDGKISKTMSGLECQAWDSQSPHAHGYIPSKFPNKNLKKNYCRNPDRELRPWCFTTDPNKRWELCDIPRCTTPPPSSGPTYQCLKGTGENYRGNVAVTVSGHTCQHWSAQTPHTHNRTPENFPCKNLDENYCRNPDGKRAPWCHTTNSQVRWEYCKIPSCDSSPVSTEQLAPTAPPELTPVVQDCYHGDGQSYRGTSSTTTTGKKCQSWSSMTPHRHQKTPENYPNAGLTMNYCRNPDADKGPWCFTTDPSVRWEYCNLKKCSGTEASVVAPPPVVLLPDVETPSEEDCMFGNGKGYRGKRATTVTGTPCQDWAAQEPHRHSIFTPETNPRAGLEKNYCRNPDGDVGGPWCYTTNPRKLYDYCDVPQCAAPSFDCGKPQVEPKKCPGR

## CC(=O)N1CCN(C(=O)[C@H](Cc2cccc(C(=N)N)c2)NS(=O)(=O)c2ccc3ccccc3c2)CC1.Cl [Compound 2, Nα-(2-naphthylsulfonyl)-(L)-3-amidinophenylalanine-4-acetylpiperazide hydrochloride]
[1]; plasma, rectal 100 mg/kg, 30 min
  concentration at 0.5 h: 32400 ng/mL
[1]; plasma, rectal 100 mg/kg, 60 min
  concentration at 1 h: 23100 ng/mL
[1]; plasma, rectal 100 mg/kg, 120 min
  concentration at 2 h: 5300 ng/mL
[1]; plasma, rectal 100 mg/kg, 180 min
  concentration at 3 h: 2700 ng/mL
[1]; plasma, rectal 100 mg/kg, 240 min
  concentration at 4 h: 1260 ng/mL
[1]; plasma, rectal 100 mg/kg, 300 min
  concentration at 5 h: 810 ng/mL
[1]; plasma, rectal 100 mg/kg, 360 min
  concentration at 6 h: 508 ng/mL
[1]; rectal
  detectable in plasma after rectal administration: ≥ 6 h
  detection/blood levels in words: absorbed by the intestine in particular after rectal administration to rats
[2]; rectal 5 mg/kg
  concentration at 0.5 h: 228 ng/mL
  concentration at 1 h: 160 ng/mL
[2]; rectal 20 mg/kg
  concentration at 0.5 h: 1620 ng/mL
  concentration at 1 h: 998 ng/mL
[2]; rectal 100 mg/kg
  concentration at 0.5 h: 28700 ng/mL
  concentration at 1 h: 16100 ng/mL
[3]; plasma, iv, i.v. 1 mg/kg, 5 min
  concentration at 5 min: 780 ng/mL
[3]; plasma, iv, i.v. 1 mg/kg, 15 min
  concentration at 0.25 h: 224 ng/mL
[3]; plasma, iv, i.v. 1 mg/kg, 30 min
  concentration at 0.5 h: 95 ng/mL
[3]; plasma, iv, i.v. 1 mg/kg, 60 min
  concentration at 1 h: 38 ng/mL
[3]; plasma, iv, i.v. 1 mg/kg, 120 min
  concentration at 2 h: 12 ng/mL
[3]; plasma, iv, i.v. 1 mg/kg, 180 min
  concentration at 3 h: 10 ng/mL
[3]; i.v.
  elimination in words: eliminated at comparable rate
[4]
  Ki: 15 µM
[5]
  Ki: 0.044 µM
[6]
  Concentr. to double the Thrombin time: 0.055 µmol/L
  concentration to double the TT: less than 10^-7 mol/1
[7]; plasma, oral 50 mg/kg, 30 min
  concentration at 0.5 h: 1200 ng/mL
[7]; plasma, oral 50 mg/kg, 60 min
  concentration at 1 h: 873 ng/mL
[7]; plasma, oral 50 mg/kg, 120 min
  concentration at 2 h: 333 ng/mL
[7]; plasma, oral 50 mg/kg, 180 min
  concentration at 3 h: 124 ng/mL
[7]; plasma, oral 50 mg/kg, 240 min
  concentration at 4 h: 44 ng/mL
[7]; plasma, oral 50 mg/kg, 300 min
  concentration at 5 h: 46 ng/mL
[7]; oral
  resorption in words: only slightly resorbed
[8]
  Concentr. to double the aPTT: 0.36 µmol/L
  concentration to double the aPTT: ≤ 1 μmol/1
[9]; rectal 5 mg/kg, 0 min
  Clotting time, aPTT: 22.5 s
[9]; rectal 5 mg/kg, 30 min
  Clotting time, aPTT: 37 s
[9]; rectal 5 mg/kg, 60 min
  Clotting time, aPTT: 33 s
[9]; rectal 5 mg/kg, 120 min
  Clotting time, aPTT: 30 s
[9]; rectal 5 mg/kg, 180 min
  Clotting time, aPTT: 26.4 s
[9]; rectal 20 mg/kg, 0 min
  Clotting time, aPTT: 28 s
[9]; rectal 20 mg/kg, 30 min
  Clotting time, aPTT: 120 s
[9]; rectal 20 mg/kg, 60 min
  Clotting time, aPTT: 87 s
[9]; rectal 20 mg/kg, 120 min
  Clotting time, aPTT: 59 s
[9]; rectal 20 mg/kg, 180 min
  Clotting time, aPTT: 50 s
[10]
  Ki: 35 µM
[11]; rectal 5 mg/kg
  concentration at 0.5 h: 296 ng/mL
  concentration at 1 h: 160 ng/mL
  concentration at 2 h: 60 ng/mL
  concentration at 3 h: 40 ng/mL
  Concentration in plasma: 0 ng/mL
[11]; rectal 20 mg/kg
  concentration at 0.5 h: 5440 ng/mL
  concentration at 1 h: 2090 ng/mL
  concentration at 2 h: 812 ng/mL
  concentration at 3 h: 660 ng/mL
  Concentration in plasma: 0 ng/mL
[12]
  Ki: 5.4 µM
[13]; 30 min
  concentration at 0.5 h: 21700 ng/mL
[13]; 60 min
  concentration at 1 h: 15200 ng/mL
[13]; 120 min
  concentration at 2 h: 4280 ng/mL
[13]; 180 min
  concentration at 3 h: 2600 ng/mL
[13]; 240 min
  concentration at 4 h: 2180 ng/mL
[13]; 300 min
  concentration at 5 h: 2200 ng/mL
[13]; 360 min
  concentration at 6 h: 2850 ng/mL
[14]
  Ki: 440 µM
[15]
  Ki: 150 µM
[16]; rectal 5 mg/kg
  Thrombus scale 0 (vein segments): 0
  Thrombus scale 1 (vein segments): 8
  Thrombus scale 2 (vein segments): 2
  Thrombus scale 3 (vein segments): 0
[16]; rectal 5 mg/kg, scale 0-3, control 2.9
  mean thrombus size of the treated group: 1.2
[16]; rectal 20 mg/kg
  Thrombus scale 0 (vein segments): 6
  Thrombus scale 1 (vein segments): 1
  Thrombus scale 2 (vein segments): 0
  Thrombus scale 3 (vein segments): 0
[16]; rectal 100 mg/kg
  Thrombus scale 0 (vein segments): 6
  Thrombus scale 1 (vein segments): 0
  Thrombus scale 2 (vein segments): 0
  Thrombus scale 3 (vein segments): 0
